Data: patent publication US20100029615A1, “BENZIMIDAZOLE DERIVATIVES” (priority 2006, published 2010)
Counter-ions that a name gives are not always drawn.

target: T1, SMO (Mus musculus, UniProt P56726); experiment: Smoothened (SMO)/Sonic Hedgehog (SHh) Transient Transcriptional Activation Assay (Gli-luciferase reporter in C3H10T1/2 cells); format: cell-based, murine; settings: 2 μM test compound, SHh 250 ng/ml, 20 hrs, 2 µM
T1 construct: endogenous in cells; host or cells: C3H10T1/2 (ATCC #CCL-226)
Method in brief: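 Luminescence (Dual-Glo) measured after 20 h co-exposure at 37 °C to 250 ng/ml human SHh and compound at 2 uM down to 2 nM final. Cells were C3H10T1/2 carrying a transfected murine 10× Gli response-element luciferase construct with pEGFP, starved 20 h in 0.5% calf serum beforehand.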

T1 sequence (P56726 33-793): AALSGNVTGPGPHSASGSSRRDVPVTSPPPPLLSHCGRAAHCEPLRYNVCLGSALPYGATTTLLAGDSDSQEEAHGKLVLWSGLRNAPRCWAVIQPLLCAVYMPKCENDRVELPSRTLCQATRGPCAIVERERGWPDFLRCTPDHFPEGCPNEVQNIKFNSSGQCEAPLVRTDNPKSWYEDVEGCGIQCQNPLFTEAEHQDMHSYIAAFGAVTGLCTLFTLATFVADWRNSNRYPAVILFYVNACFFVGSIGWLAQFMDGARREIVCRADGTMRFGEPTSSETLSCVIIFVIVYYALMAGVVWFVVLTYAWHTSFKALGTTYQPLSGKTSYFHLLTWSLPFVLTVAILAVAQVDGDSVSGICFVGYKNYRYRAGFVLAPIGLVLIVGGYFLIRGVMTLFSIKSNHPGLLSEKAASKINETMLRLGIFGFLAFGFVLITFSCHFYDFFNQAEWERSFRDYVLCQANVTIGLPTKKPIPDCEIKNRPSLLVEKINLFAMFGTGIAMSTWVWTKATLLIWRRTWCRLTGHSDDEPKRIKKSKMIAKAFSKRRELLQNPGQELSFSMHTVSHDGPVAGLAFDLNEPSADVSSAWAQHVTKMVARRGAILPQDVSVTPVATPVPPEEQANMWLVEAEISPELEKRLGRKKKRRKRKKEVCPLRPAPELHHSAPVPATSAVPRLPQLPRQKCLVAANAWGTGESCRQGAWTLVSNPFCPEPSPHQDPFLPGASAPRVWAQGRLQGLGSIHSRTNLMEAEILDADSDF

Row | SMO CELL % INHIBITION @ 2 μM | Structure (SMILES)
1 | 101% | CN1CCCc2cc(C(=O)N[C@@H]3CCC[C@H](c4nc5ccccc5[nH]4)C3)ccc21 [Example 201, N-[(1R,3S)-3-(1H-benzimidazol-2-yl)cyclohexyl]-1-methyl-1,2,3,4-tetrahydroquino-line-6-carboxamide triflouroacetate]

same assay, conditions: C3H 10T1/2, 2 μM test compound, SHh 250 ng/ml, 20 hrs, read-out: SMO CELL % INHIBITION @ 2 μM

Row | inhibition at 2 µM | Structure (SMILES)
2 | 106% | O=C(N[C@@H]1CCC[C@H](c2nc3ccccc3[nH]2)C1)c1cc2ccccc2s1 [Example 182, N-[(1R,3S)-3-(1H-benzimidazol-2-yl)cyclohexyl]-1-benzothiophene-2-carboxamide triflouroacetate]
3 | 95% | Cc1ccc(C(=O)N[C@@H]2CCC[C@H](c3nc4ccccc4[nH]3)C2)c2ccccc12 [Example 183, N-[(1R,3S)-3-(1H-benzimidazol-2-yl)cyclohexyl]-4-methyl-1-naphthamide triflouroacetate]
4 | 61% | COc1ccc2oc(C(=O)N[C@@H]3CCC[C@H](c4nc5ccccc5[nH]4)C3)cc2c1 [Example 184, N-[(1R,3S)-3-(1H-benzimidazol-2-yl)cyclohexyl]-5-methoxy-1-benzofuran-2-carboxamide triflouroacetate]
5 | 81% | O=C(N[C@@H]1CCC[C@H](c2nc3ccccc3[nH]2)C1)[C@@H]1COc2ccccc2O1 [Example 185, (2S)-N-[(1R,3S)-3-(1H-benzimidazol-2-yl)cyclohexyl]-2,3-dihydro-1,4-benzodioxine-2-carboxamide triflouroacetate]
6 | 59% | O=C(N[C@@H]1CCC[C@H](c2nc3ccccc3[nH]2)C1)c1ccc2c(c1)OCO2 [Example 186, N-[(1R,3S)-3-(1H-benzimidazol-2-yl)cyclohexyl]-1,3-benzodioxole-5-carboxamide triflouroacetate]
7 | 94% | O=C(N[C@@H]1CCC[C@H](c2nc3ccccc3[nH]2)C1)c1ccc2ccccc2c1 [Example 187, N-[(1R,3S)-3-(1H-benzimidazol-2-yl)cyclohexyl]-2-naphthamide triflouroacetate]
8 | 64% | O=C(N[C@@H]1CCC[C@H](c2nc3ccccc3[nH]2)C1)c1cccc2ccccc12 [Example 188, N-[(1R,3S)-3-(1H-benzimidazol-2-yl)cyclohexyl]-1-naphthamide triflouroacetate]
9 | 65% | Cc1c(C(=O)N[C@@H]2CCC[C@H](c3nc4ccccc4[nH]3)C2)oc2ccccc12 [Example 189, N-[(1R,3S)-3-(1H-benzimidazol-2-yl)cyclohexyl]-3-methyl-1-benzofuran-2-carboxamide triflouroacetate]
10 | 37% | O=C(N[C@@H]1CCC[C@H](c2nc3ccccc3[nH]2)C1)c1ccc2nonc2c1 [Example 190, N-[(1R,3S)-3-(1H-benzimidazol-2-yl)cyclohexyl]-2,1,3-benzoxadiazole-5-carboxamide triflouroacetate]
11 | 107% | Cc1ccc2[nH]c(C(=O)N[C@@H]3CCC[C@H](c4nc5ccccc5[nH]4)C3)c(C)c2c1 [Example 191, N-[(1R,3S)-3-(1H-benzimidazol-2-yl)cyclohexyl]-3,5-dimethyl-1H-indole-2-carboxamide triflouroacetate]
12 | 109% | Cc1[nH]c2ccc(C(=O)N[C@@H]3CCC[C@H](c4nc5ccccc5[nH]4)C3)cc2c1C [Example 192, N-[(1R,3S)-3-(1H-benzimidazol-2-yl)cyclohexyl]-2,3-dimethyl-1H-indole-5-carboxamide triflouroacetate]
13 | 53% | O=C(N[C@@H]1CCC[C@H](c2nc3ccccc3[nH]2)C1)C1=Cc2ccccc2OC1 [Example 193, N-[(1R,3S)-3-(1H-benzimidazol-2-yl)cyclohexyl]-2H-chromene-3-carboxamide triflouroacetate]
14 | 47% | Cc1cc(C)n2nc(C(=O)N[C@@H]3CCC[C@H](c4nc5ccccc5[nH]4)C3)cc2n1 [Example 194, N-[(1R,3S)-3-(1H-benzimidazol-2-yl)cyclohexyl]-5,7-dimethylpyrazolo-[1,5-a]pyrimidine-2-carboxamide triflouroacetate]
15 | 81% | O=C(N[C@@H]1CCC[C@H](c2nc3ccccc3[nH]2)C1)C1COc2ccccc2C1 (stereo partly drawn) [Example 195, N-[(1R,3S)-3-(1H-benzimidazol-2-yl)cyclohexyl] chromane-3-carboxamide triflouroacetate]
16 | 70% | O=C(N[C@@H]1CCC[C@H](c2nc3ccccc3[nH]2)C1)C1COc2ccccc2O1 (stereo partly drawn) [Example 196, N-[(1R,3S)-3-(1H-benzimidazol-2-yl)cyclohexyl]-2,3-dihydro-1,4-benzodioxine-2-carboxamide triflouroacetate]
17 | 50% | Cc1nc2cc(C(=O)N[C@@H]3CCC[C@H](c4nc5ccccc5[nH]4)C3)ccc2[nH]1 [Example 197, N-[(1R,3S)-3-(1H-benzimidazol-2-yl)cyclohexyl]-2-methyl-1H-benzimidazole-5-carboxamide triflouroacetate]
18 | 85% | O=C(N[C@@H]1CCC[C@H](c2nc3ccccc3[nH]2)C1)c1ccc2c(c1)CCO2 [Example 198, N-[(1R,3S)-3-(1H-benzimidazol-2-yl)cyclohexyl]-2,3-dihydro-1-benzofuran-5-carboxamide triflouroacetate]

Row | inhibition at 2 µM | Structure (SMILES)
19 | 67% | O=C(N[C@@H]1CCC[C@H](c2nc3ccccc3[nH]2)C1)c1n[nH]c2ccccc12 [Example 199, N-[(1R,3S)-3-(1H-benzimidazol-2-yl)cyclohexyl]-1H-indazole-3-carboxamide triflouroacetate]
20 | 110% | CN1CCCc2cc(C(=O)N[C@@H]3CCC[C@H](c4nc5ccccc5[nH]4)C3)ccc21 [Example 200, N-[(1R,3S)-3-(1H-benzimidazol-2-yl)cyclohexyl]-1-methyl-1,2,3,4-tetrahydroquino-line-6-carboxamide HCl]
21 | 34% | O=C(N[C@@H]1CCC[C@H](c2nc3ccccc3[nH]2)C1)c1ccc2snnc2c1 [Example 202, N-[(1R,3S)-3-(1H-benzimidazol-2-yl)cyclohexyl]-1,2,3-benzothiadiazole-5-carboxamide triflouroacetate]
22 | 109% | O=C(N[C@@H]1CCC[C@H](c2nc3ccccc3[nH]2)C1)c1ccc2cc[nH]c2c1 [Example 203, N-[(1R,3S)-3-(1H-benzimidazol-2-yl)cyclohexyl]-1H-indole-6-carboxamide triflouroacetate]
23 | 103% | Cc1nn(C)c2sc(C(=O)N[C@@H]3CCC[C@H](c4nc5ccccc5[nH]4)C3)cc12 [Example 204, N-[(1R,3S)-3-(1H-benzimidazol-2-yl)cyclohexyl]-1,3-dimethyl-1H-thieno[2,3-c]pyrazole-5-carboxamide triflouroacetate]
24 | 54% | O=C(N[C@@H]1CCC[C@H](c2nc3ccccc3[nH]2)C1)c1c[nH]c2ccccc12 [Example 205, N-[(1R,3S)-3-(1H-benzimidazol-2-yl)cyclohexyl]-1H-indole-3-carboxamide triflouroacetate]
25 | 56% | O=C(N[C@@H]1CCC[C@H](c2nc3ccccc3[nH]2)C1)c1ccc2nsnc2c1 [Example 206, N-[(1R,3S)-3-(1H-benzimidazol-2-yl)cyclohexyl]-2,1,3-benzothiadiazole-5-carboxamide triflouroacetate]
26 | 107% | O=C(N[C@@H]1CCC[C@H](c2nc3ccccc3[nH]2)C1)[C@H]1CCc2ccccc2O1 [Example 207, (2R)-N-[(1R,3S)-3-(1H-benzimidazol-2-yl)cyclohexyl]-chromane-2-carboxamide triflouroacetate]
27 | 80% | COc1cccc2[nH]c(C(=O)N[C@@H]3CCC[C@H](c4nc5ccccc5[nH]4)C3)cc12 [Example 208, N-[(1R,3S)-3-(1H-benzimidazol-2-yl)cyclohexyl]-4-methoxy-1H-indole-2-carboxamide triflouroacetate]
28 | 32% | O=C(N[C@@H]1CCC[C@H](c2nc3ccccc3[nH]2)C1)c1cc2ccc(F)cc2[nH]1 [Example 209, N-[(1R,3S)-3-(1H-benzimidazol-2-yl)cyclohexyl]-6-fluoro-1H-indole-2-carboxamide triflouroacetate]
29 | 88% | O=C(N[C@@H]1CCC[C@H](c2nc3ccccc3[nH]2)C1)c1cc2ccc(Cl)cc2[nH]1 [Example 210, N-[(1R,3S)-3-(1H-benzimidazol-2-yl)cyclohexyl]-6-chloro-1H-indole-2-carboxamide triflouroacetate]
30 | 89% | COc1ccc2cc(C(=O)N[C@@H]3CCC[C@H](c4nc5ccccc5[nH]4)C3)[nH]c2c1 [Example 211, N-[(1R,3S)-3-(1H-benzimidazol-2-yl)cyclohexyl]-6-methoxy-1H-indole-2-carboxamide triflouroacetate]
31 | 71% | O=C(N[C@@H]1CCC[C@H](c2nc3ccccc3[nH]2)C1)c1n[nH]c2c1CCCCCC2 [Example 212, N-[(1R,3S)-3-(1H-benzimidazol-2-yl)cyclohexyl]-4,5,6,7,8,9-hexahydro-1H-cycloocta[c] pyrazole-3-carboxamide triflouroacetate]
32 | 73% | O=C(N[C@@H]1CCC[C@H](c2nc3ccccc3[nH]2)C1)c1ccc2oc(=O)[nH]c2c1 [Example 213, N-[(1R,3S)-3-(1H-benzimidazol-2-yl)cyclohexyl]-2-oxo-2,3-dihydro-1,3-benzoxazole-5-carboxamide triflouroacetate]
33 | 100% | CCc1c(C(=O)N[C@@H]2CCC[C@H](c3nc4ccccc4[nH]3)C2)[nH]c2ccccc12 [Example 214, N-[(1R,3S)-3-(1H-benzimidazol-2-yl)cyclohexyl]-3-ethyl-1H-indole-2-carboxamide triflouroacetate]
34 | 46% | Cc1nc2cc(C(=O)N[C@@H]3CCC[C@H](c4nc5ccccc5[nH]4)C3)ccc2s1 [Example 215, N-[(1R,3S)-3-(1H-benzimidazol-2-yl)cyclohexyl]-2-methyl-1,3-benzothiazole-5-carboxamide triflouroacetate]
